{
  "source": "a melting point compilation (Tetko et al.; mined from patent text by program, amines drawn as free bases though some values may be those of a salt)",
  "data": [
    {"units": {"melting point": "°C"}, "values": [
      {"smiles": "Nc1ccc(-c2nc3ccccc3o2)cc1I", "melting point": "188 to 191"},
      {"smiles": "COc1ccc(N2CCN(Cc3n[nH]c4ccccc34)CC2)nc1", "melting point": "132 to 134"},
      {"smiles": "COc1ccc2c(n1)c(CCNC(C)=O)c1n2CCCc2ccccc2-1", "melting point": "73 to 74"},
      {"smiles": "COc1ccc2c(c1)CCC1C2CCC2(C)C(O)C(N)CC12", "note": "(stereo not drawn)", "melting point": "159 to 161"},
      {"smiles": "COc1cc(Nc2nccc(Nc3ccc4c(ccn4S(=O)(=O)c4ccccc4)c3)n2)cc(OC)c1OC", "melting point": 127},
      {"smiles": "O=C1OC(c2ccccc2)C2CCc3cc(OCCCC(F)(F)F)ccc3N12", "note": "(stereo not drawn)", "melting point": 130},
      {"smiles": "O=C(NCCO)C(=O)NCCO", "melting point": "166 to 169"},
      {"smiles": "COc1ccc(CCN(C)CCCCc2ccc(NC(=O)c3cccc4c(=O)c5cccc(OC)c5[nH]c34)cc2)cc1OC", "melting point": 170},
      {"smiles": "COc1cc(C(C)C)c(NC(=O)CN2CCN(CCSc3nc4cccc(C(C)=O)c4o3)CC2)c(C(C)C)c1", "melting point": "185 to 186"},
      {"smiles": "CCOC(=O)c1c2n(c3cc(Br)c(F)cc3c1=O)C(C)CS2", "note": "(stereo not drawn)", "melting point": 211},
      {"smiles": "Cc1cc(C)n(-c2nc(Nc3ccc(Cl)cc3)c3ccccc3n2)n1", "melting point": "209 to 211"},
      {"smiles": "O=C(NCC(S)CO)OCc1ccc([N+](=O)[O-])cc1", "note": "(stereo not drawn)", "melting point": "65 to 67"},
      {"smiles": "CS(=O)(=O)Nc1cc(N)ccc1Oc1ccccc1", "melting point": "112 to 114"},
      {"smiles": "CS(=O)(=O)OCCCCCCc1ccc(OCc2coc(/C=C/c3ccccc3)n2)cc1", "melting point": "88 to 89"},
      {"smiles": "CN(c1ccc(O)cc1)c1nc2ccccc2[nH]1", "melting point": "> 260"},
      {"smiles": "O=C(CCCCC(=O)c1ccc(F)cc1)c1ccc(F)cc1", "melting point": "165 to 167"},
      {"smiles": "Nc1cc(Cl)ccc1C(=O)NCC1CCN(C(c2ccccc2)c2ccccc2)CC1", "melting point": "161 to 162"},
      {"smiles": "CCCCc1nc2cccc(C(=O)OCC)c2n1Cc1ccc(-c2ccccc2-c2nnn[nH]2)cc1", "melting point": "138 to 139"},
      {"smiles": "CN(C)c1cnc(N)cn1", "melting point": "71.5 to 74.2"},
      {"smiles": "O=C(O)c1ccc(CN2C(=O)C3(COc4cc5c(cc43)OCCO5)c3ccccc32)cc1", "note": "(stereo not drawn)", "melting point": "234 to 237"},
      {"smiles": "CC(=O)OC1COC(N)C(OC(C)=O)C1OC(C)=O", "note": "(stereo not drawn)", "melting point": "148 to 149"},
      {"smiles": "Cc1c(NC(=O)CC(C)(C)C)c(C)c2c(c1-c1ccc(N(C)C)cc1)OCC2c1ccc(C(C)C)cc1", "note": "(stereo not drawn)", "melting point": "180 to 181"},
      {"smiles": "Nc1nc(N)c2ncn(COCCOC=O)c2n1", "melting point": "238 to 240"},
      {"smiles": "CCCCc1nc2cccc(CCO)c2n1Cc1ccccc1Cl", "melting point": "130 to 132"},
      {"smiles": "CNc1nc(-c2cccc(NC(=O)c3cccc(OCc4ccccc4)c3)c2)c2cc(OC)c(OC)cc2n1", "melting point": "110 to 112"},
      {"smiles": "Cc1cc(-c2noc(C(F)F)n2)cc(C)c1OCCCc1n[nH]c(=O)s1", "melting point": "110 to 111"},
      {"smiles": "COc1ccccc1-n1c(=O)[nH]c2c(C(N)=O)nc(-c3cccc4ncccc34)nc21", "melting point": "335 to 337"},
      {"smiles": "CC(=O)NCc1ccsc1", "melting point": "46 to 47"},
      {"smiles": "COC(=O)c1c(C)nc(CC(C)C)c(CN)c1-c1ccc(C)cc1", "melting point": "56 to 57"},
      {"smiles": "COC(=O)c1sc(C(C)C)cc1NC(=O)Nc1ccccc1", "melting point": "108 to 110"},
      {"smiles": "Cc1ccc([C@@H](Sc2cc(C)ccc2N)[C@H](O)C(N)=O)cc1", "melting point": "145 to 146"},
      {"smiles": "CC(=O)NC(CCc1ccccc1)(COC(C)=O)COC(C)=O", "melting point": "116 to 117"},
      {"smiles": "CCOC(=O)c1c(C)nc2cc(C)ccn12", "melting point": "59 to 61"},
      {"smiles": "CCOc1cc2c3c(cccc3c1)C(=O)N(O)C2=O", "melting point": "224 to 227"},
      {"smiles": "CCCCSc1nnc(-c2ccc(N)cc2)s1", "melting point": 91},
      {"smiles": "CON(C)C(=O)Nc1ccc(CC#N)cc1Cl", "melting point": 104},
      {"smiles": "CCN(CC)C(=O)c1c(O)c(=O)cc(C)n1C", "melting point": "128 to 130"},
      {"smiles": "CN1C(=O)C(N)N=C(c2ccccc2)c2ccncc21", "note": "(stereo not drawn)", "melting point": "94 to 118"},
      {"smiles": "Clc1nc(-c2ccccc2)nc(-c2ccccc2)n1", "melting point": "136 to 138"},
      {"smiles": "CC(=O)Nc1ccc(S(=O)(=O)CCCCNS(=O)(=O)c2ccc(C)cc2)cc1", "melting point": "93 to 95"},
      {"smiles": "CCCCCOc1cccc(N)c1C#N", "melting point": "70 to 73"},
      {"smiles": "CCOC(=O)C(=O)c1c[nH]c2cc(OC)ccc12", "melting point": "207 to 208"},
      {"smiles": "CCCCCCCCCCCCCCCCCC(=O)NCC(C)(C)CO", "melting point": 44},
      {"smiles": "Cc1cccc(-c2ccc3c(c2)c2c(n3Cc3ccc(C(C)(C)C)cc3)COC(=O)C2=O)c1", "melting point": "196 to 197"},
      {"smiles": "O=C(O)CNC(=O)c1ccc([N+](=O)[O-])c(F)c1", "melting point": "136 to 138"},
      {"smiles": "CS(=O)(=O)OCCCCC1C(=O)Nc2cc(F)ccc21", "note": "(stereo not drawn)", "melting point": "106 to 108"},
      {"smiles": "O=[N+]([O-])c1ccc(Oc2cccc3cccnc23)c(Cl)c1", "melting point": "113 to 115"},
      {"smiles": "COc1ccc2cc(C(N)=O)c(N)nc2c1OC", "melting point": "218 to 219"},
      {"smiles": "N#CC=C(Cc1ccc2c(c1)OCO2)Nc1ccccc1", "melting point": "150 to 151"},
      {"smiles": "CC(C)(C)OC(=O)NC(C(=O)O)C1(O)CCOCC1", "note": "(stereo not drawn)", "melting point": "140 to 141"},
      {"smiles": "O=Cc1cc(Cl)ccc1Oc1ccc(Cl)cc1[N+](=O)[O-]", "melting point": "128 to 130"},
      {"smiles": "COCCOc1ccc(CCC(=O)NS(N)(=O)=O)c(Oc2ncc(C(F)(F)F)cc2Cl)c1", "melting point": "158 to 159"},
      {"smiles": "CC(C)n1nc(C(Cl)C(=O)c2ccccc2)ccc1=O", "note": "(stereo not drawn)", "melting point": "86.5 to 87.5"},
      {"smiles": "CNC(=O)[C@H]1O[C@@H](n2cnc3c(NCc4cc(Cl)ccc4OCC4OC(O)C(O)C(O)C4O)ncnc32)[C@H](O)[C@@H]1N", "note": "(stereo partly drawn)", "melting point": "212 to 218"},
      {"smiles": "O=C(O)c1ccc(-c2ccc(NS(=O)(=O)c3cccnc3)cc2)[nH]c1=O", "melting point": "> 260"},
      {"smiles": "Cc1ccc(NC(=O)N2CC(Oc3cccc(C(F)(F)F)c3)C2)cc1", "melting point": "191 to 192"},
      {"smiles": "CN1c2nnnn2-c2ccc(Cl)cc2C1c1ccccc1", "note": "(stereo not drawn)", "melting point": 280},
      {"smiles": "CC(C)(C)OC(=O)NCCOCCNC1(c2ccccc2Cl)C(=O)Nc2ccc(Cl)cc21", "note": "(stereo not drawn)", "melting point": "138 to 140"},
      {"smiles": "NC(=O)CCCCCCCCCCCNC(N)=NC(=O)c1nc(Cl)c(N)nc1N", "melting point": "192 to 194"},
      {"smiles": "O=C1NCCc2c(-c3ccc(F)c(Cl)c3)[nH]c3cccc1c23", "melting point": "234 to 235"},
      {"smiles": "CNS(=O)(=O)c1cccc(OC)c1C#N", "melting point": "121 to 128"},
      {"smiles": "COc1ccc2c(c1)C(=O)N(c1ccc3c(ccn3C)n1)C2", "melting point": "230 to 234"},
      {"smiles": "O=C(O)c1cn(Cc2ccccc2)c2nc(N3CCNCC3)ncc2c1=O", "melting point": "250 to 253"},
      {"smiles": "Cc1cc([N+](=O)[O-])c2[nH]cc(CO)c(=O)c2c1", "melting point": "> 240"},
      {"smiles": "CC(C)(C)OC(=O)N[C@@H]1C[C@H](C(=O)O)Nc2cc(Cl)cc(Cl)c21", "note": "(relative stereo)", "melting point": "186 to 188"},
      {"smiles": "CC(C)(C)CC(NC(=O)c1ccccc1)Nc1c(Nc2cccnc2Cl)c(=O)c1=O", "note": "(stereo not drawn)", "melting point": "259 to 260"},
      {"smiles": "O=C1C(=Cc2ccoc2)CCc2cc(OCCn3ccnc3)ccc21", "melting point": "116 to 117"},
      {"smiles": "CCC([O-])=C(C(=O)OCc1ccc([N+](=O)[O-])cc1)N1C(=O)CC1[N+](CC)(CC)CC", "note": "(stereo not drawn)", "melting point": "110 to 112"},
      {"smiles": "COC(=O)Cc1ccc2c(c1)CCc1ccccc1S2", "melting point": "103 to 105"},
      {"smiles": "CC(C)(C)OC(=O)N[C@H](Cc1ccccc1)C(=O)N1CCC[C@H]1C(=O)NCc1ccc(C#N)nc1", "melting point": "167 to 170"},
      {"smiles": "N#Cc1ccc(OCCCCOc2ccc(-c3cc4cc(C#N)ccc4o3)cc2)cc1", "melting point": "186 to 188"},
      {"smiles": "Cc1ccc2oc(=O)c(C(=O)Oc3cc(Cl)ccc3Cl)cc2c1", "melting point": "175 to 179"},
      {"smiles": "Cn1ncc(C(=O)N2CCOCC2)c1C(=O)Nc1ccn2nc(Br)nc2c1", "melting point": "198 to 214"}
    ]}
  ]
}
